According to PubChem BioAssay AID1963826 (Molecular Pharmacology Branch, DTP, NCI, 2024):

System: 926638-142-R-J1-PDC complex spheroid viability
Experiment: Anticancer human tumor 926638-142-R-J1-PDC patient-derived endometrial carcinoma cell line growth inhibition [POLQ]
Details: for IC50: curve of first compound; for viability, T/C: stronger effect = lower value
Summary of the method: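 PDC + HUVEC + MSC complex spheroids; POLQ inhibitors ± partner drugs; top conc. at/near clinical Cmax, else 10 microM (SN-38 1 microM), half-log dilutions; 37 degrees C, 5% CO2.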

[1] = second compound 0.0316 µM, first compound 0.0316 µM
[2] = second compound 0.0316 µM, first compound 0.1 µM
[3] = second compound 0.0316 µM, first compound 0.316 µM
[4] = second compound 0.0316 µM, first compound 1 µM
[5] = second compound 0.0316 µM, first compound 3.16 µM
[6] = second compound 0.0316 µM, first compound 10 µM
[7] = second compound 0.1 µM, first compound 0.0316 µM
[8] = second compound 0.1 µM, first compound 0.1 µM
[9] = second compound 0.1 µM, first compound 0.316 µM
[10] = second compound 0.1 µM, first compound 1 µM
[11] = second compound 0.1 µM, first compound 3.16 µM
[12] = second compound 0.1 µM, first compound 10 µM
[13] = second compound 0.316 µM, first compound 0.0316 µM
[14] = second compound 0.316 µM, first compound 0.1 µM
[15] = second compound 0.316 µM, first compound 0.316 µM
[16] = second compound 0.316 µM, first compound 1 µM
[17] = second compound 0.316 µM, first compound 3.16 µM
[18] = second compound 0.316 µM, first compound 10 µM
[19] = second compound 1 µM, first compound 0.0316 µM
[20] = second compound 1 µM, first compound 0.1 µM
[21] = second compound 1 µM, first compound 0.316 µM
[22] = second compound 1 µM, first compound 1 µM
[23] = second compound 1 µM, first compound 3.16 µM
[24] = second compound 1 µM, first compound 10 µM
[25] = second compound 3.16 µM, first compound 0.0316 µM
[26] = second compound 3.16 µM, first compound 0.1 µM
[27] = second compound 3.16 µM, first compound 0.316 µM
[28] = second compound 3.16 µM, first compound 1 µM
[29] = second compound 3.16 µM, first compound 3.16 µM
[30] = second compound 3.16 µM, first compound 10 µM
[31] = second compound 10 µM, first compound 0.0316 µM
[32] = second compound 10 µM, first compound 0.1 µM
[33] = second compound 10 µM, first compound 0.316 µM
[34] = second compound 10 µM, first compound 1 µM
[35] = second compound 10 µM, first compound 3.16 µM
[36] = second compound 10 µM, first compound 10 µM
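Note: spheroids exposed to drugs for one week before readout.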
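Throughout, for viability, T/C: percent viability relative to DMSO vehicle control wells set as 100%.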

For `CCc1cc2c(N3CCc4c(cc(Cn5ccnc5)cc4-c4cn(C)nc4C(F)(F)F)C3=O)cc(C)nc2c(OC)n1` + Nc1ccc(C#CCN(C(=O)Cc2ncc(C(F)(F)F)cc2C(F)(F)F)c2ccc(F)cc2)nn1, the IC50 (second compound 0.0316 µM) was 1130 nM, the IC50 (second compound 0.1 µM) was 426 nM and the IC50 (second compound 0.316 µM) was 829 nM. For the same compound, the IC50 (second compound 1 µM) was 478 nM, the IC50 (second compound 3.16 µM) was 728 nM and the IC50 (second compound 10 µM) was 503 nM. The viability, T/C [1] was 86.9%, the viability, T/C [2] was 66.6% and the viability, T/C [3] was 65.4%. The viability, T/C [4] was 43.6%, the viability, T/C [5] was 51.3% and the viability, T/C [6] was 33.6%. For the same compound, the viability, T/C [7] was 90.7%, the viability, T/C [8] was 66.7% and the viability, T/C [9] was 52.7%. It also gave a viability, T/C [10] of 40.9%, a viability, T/C [11] of 42.1% and a viability, T/C [12] of 28.2%. It also gave a viability, T/C [13] of 83%, a viability, T/C [14] of 70.4% and a viability, T/C [15] of 55%. The viability, T/C [16] was 47.8%, the viability, T/C [17] was 44.1% and the viability, T/C [18] was 27.6%. The viability, T/C [19] was 69.3%, the viability, T/C [20] was 69.8% and the viability, T/C [21] was 56.6%. For the same compound, the viability, T/C [22] was 37.9%, the viability, T/C [23] was 43.5% and the viability, T/C [24] was 30.1%. The viability, T/C [25] was 76.3%, the viability, T/C [26] was 58.2% and the viability, T/C [27] was 57%. For the same compound, the viability, T/C [28] was 47.2%, the viability, T/C [29] was 46.9% and the viability, T/C [30] was 31.6%. It also gave a viability, T/C [31] of 60.2%, a viability, T/C [32] of 63.8% and a viability, T/C [33] of 53.8%. For the same compound, the viability, T/C [34] was 39.6%, the viability, T/C [35] was 42% and the viability, T/C [36] was 27.2%.

In the case of `COc1cc2cc(C(=O)CCC(=O)O)sc2cc1OC` + Nc1ccc(C#CCN(C(=O)Cc2ncc(C(F)(F)F)cc2C(F)(F)F)c2ccc(F)cc2)nn1, the IC50 (second compound 0.0316 µM) is reported as greater than 10000 nM, the IC50 (second compound 0.1 µM) is reported as greater than 10000 nM and the IC50 (second compound 0.316 µM) is reported as greater than 10000 nM. The IC50 (second compound 1 µM) was greater than 10000 nM, the IC50 (second compound 3.16 µM) was greater than 10000 nM and the IC50 (second compound 10 µM) was greater than 10000 nM. It also gave a viability, T/C [1] of 101%, a viability, T/C [2] of 99.4% and a viability, T/C [3] of 104%. For the same compound, the viability, T/C [4] was 98.5%, the viability, T/C [5] was 104% and the viability, T/C [6] was 70%. For the same compound, the viability, T/C [7] was 111%, the viability, T/C [8] was 97.8% and the viability, T/C [9] was 91.1%. The viability, T/C [10] was 96.4%, the viability, T/C [11] was 104% and the viability, T/C [12] was 103%. For the same compound, the viability, T/C [13] was 110%, the viability, T/C [14] was 105% and the viability, T/C [15] was 107%. For the same compound, the viability, T/C [16] was 102%, the viability, T/C [17] was 112% and the viability, T/C [18] was 99.9%. For the same compound, the viability, T/C [19] was 111%, the viability, T/C [20] was 108% and the viability, T/C [21] was 90.4%. It also gave a viability, T/C [22] of 101%, a viability, T/C [23] of 112% and a viability, T/C [24] of 85.1%. It also gave a viability, T/C [25] of 110%, a viability, T/C [26] of 93.9% and a viability, T/C [27] of 105%. It also gave a viability, T/C [28] of 101%, a viability, T/C [29] of 104% and a viability, T/C [30] of 88.4%. It also gave a viability, T/C [31] of 89.3%, a viability, T/C [32] of 101% and a viability, T/C [33] of 83.4%. It also gave a viability, T/C [34] of 85.2%, a viability, T/C [35] of 96.4% and a viability, T/C [36] of 87.8%.

Work on `COc1ccc([C@@H](O)c2cc(-c3ncnc4cc(N5CCOCC5)ccc34)c(F)cc2Cl)nn1` + Nc1ccc(C#CCN(C(=O)Cc2ncc(C(F)(F)F)cc2C(F)(F)F)c2ccc(F)cc2)nn1 yielded an IC50 (second compound 0.0316 µM) of 631 nM, an IC50 (second compound 0.1 µM) of 450 nM and an IC50 (second compound 0.316 µM) of 572 nM. The IC50 (second compound 1 µM) was 708 nM, the IC50 (second compound 3.16 µM) was 628 nM and the IC50 (second compound 10 µM) was 537 nM. It also gave a viability, T/C [1] of 90.7%, a viability, T/C [2] of 82% and a viability, T/C [3] of 58.1%. For the same compound, the viability, T/C [4] was 47.2%, the viability, T/C [5] was 20.1% and the viability, T/C [6] was 14.7%. It also gave a viability, T/C [7] of 101%, a viability, T/C [8] of 83.3% and a viability, T/C [9] of 56.6%. It also gave a viability, T/C [10] of 34%, a viability, T/C [11] of 19.4% and a viability, T/C [12] of 12.7%. It also gave a viability, T/C [13] of 119%, a viability, T/C [14] of 101% and a viability, T/C [15] of 67.1%. It also gave a viability, T/C [16] of 33.9%, a viability, T/C [17] of 19.8% and a viability, T/C [18] of 15%. The viability, T/C [19] was 103%, the viability, T/C [20] was 88.9% and the viability, T/C [21] was 71.9%. For the same compound, the viability, T/C [22] was 41.2%, the viability, T/C [23] was 20% and the viability, T/C [24] was 13.2%. For the same compound, the viability, T/C [25] was 91.6%, the viability, T/C [26] was 75.8% and the viability, T/C [27] was 67%. For the same compound, the viability, T/C [28] was 39.3%, the viability, T/C [29] was 22.9% and the viability, T/C [30] was 12.7%. It also gave a viability, T/C [31] of 81.4%, a viability, T/C [32] of 76.2% and a viability, T/C [33] of 65.6%. The viability, T/C [34] was 32%, the viability, T/C [35] was 15% and the viability, T/C [36] was 10.2%.

In the case of `O=C(Nc1ccc(O)c(NS(=O)(=O)c2ccc(F)cc2)c1)c1ccc(-c2ccccc2)cc1` + Nc1ccc(C#CCN(C(=O)Cc2ncc(C(F)(F)F)cc2C(F)(F)F)c2ccc(F)cc2)nn1, the IC50 (second compound 0.0316 µM) is reported as greater than 10000 nM, the IC50 (second compound 0.1 µM) is reported as greater than 10000 nM and the IC50 (second compound 0.316 µM) is reported as greater than 10000 nM. The IC50 (second compound 1 µM) was greater than 10000 nM, the IC50 (second compound 3.16 µM) was greater than 10000 nM and the IC50 (second compound 10 µM) was greater than 10000 nM. The viability, T/C [1] was 106%, the viability, T/C [2] was 101% and the viability, T/C [3] was 80.8%. It also gave a viability, T/C [4] of 110%, a viability, T/C [5] of 95.7% and a viability, T/C [6] of 82.8%. For the same compound, the viability, T/C [7] was 105%, the viability, T/C [8] was 103% and the viability, T/C [9] was 107%. The viability, T/C [10] was 108%, the viability, T/C [11] was 96.4% and the viability, T/C [12] was 81.3%. For the same compound, the viability, T/C [13] was 114%, the viability, T/C [14] was 102% and the viability, T/C [15] was 99.5%. It also gave a viability, T/C [16] of 116%, a viability, T/C [17] of 109% and a viability, T/C [18] of 81.1%. It also gave a viability, T/C [19] of 98%, a viability, T/C [20] of 106% and a viability, T/C [21] of 103%. It also gave a viability, T/C [22] of 105%, a viability, T/C [23] of 105% and a viability, T/C [24] of 71.9%. The viability, T/C [25] was 100%, the viability, T/C [26] was 82.4% and the viability, T/C [27] was 96.1%. For the same compound, the viability, T/C [28] was 100%, the viability, T/C [29] was 106% and the viability, T/C [30] was 67.6%. For the same compound, the viability, T/C [31] was 92.2%, the viability, T/C [32] was 92.8% and the viability, T/C [33] was 89.5%. It also gave a viability, T/C [34] of 104%, a viability, T/C [35] of 104% and a viability, T/C [36] of 72.5%.
